Test [1] relates to rhIFNγ stimulated STAT-3 phosphorylation in the A549 human epithelial cell line. Kind of test: A549 Cell Assay: Inhibition of pSTAT3. The test is classed as cell-based. Particulars: A549 cells. Here is the method: A549 Cell Assay: Inhibition of pSTAT3
An assay measuring the efficacy of JAK inhibitors on the functional response of recombinant human interferon γ (rhIFNγ) stimulated STAT-3 phosphorylation in the A549 human epithelial cell line.
A549 cells (ATCC #CCL-185), were plated at 30,000 cells/well in 96 well flat bottomed tissue culture plates (BD#353072) in 200 μL of growth medium (DMEM, Pfizer media prep, with 10% Fetal Bovine Serum, Sigma #F4135, 2 mM L-Glutamine, Pfizer media prep, 100 U/mL penicillin, Pfizer media prep, and 200 μg/ml streptomycin, Pfizer media prep), and cultured at 37° C., 5% CO2 incubator for 18 hours. Growth medium was removed by vacuum aspiration (V&P Scientific #vp187 bp-60), and 90 μL of pre-warmed assay medium (DMEM with 0.2% BSA, Miltenyi #130-091-376) was added to each well and incubated for 15 minutes at 37° C. 10 μL of vehicle control or test compound (final concentration range of 0.3 nM to 10 μM with 0.1% DMSO) was added to the cells. Plates were incubated at 37° C. for 1 hour. After compound incubation, 10 μL of 220 ng/mL recombinant human IFNγ (R&D Systems #285-IF, final rhIFNγ concentration of 20 ng/mL) was added to the cells and plates were incubated for 30 minutes at 37° C. Wells containing A549 cells, medium with 0.1% DMSO and no rhIFNγ were used as background controls. After rhIFNγ stimulation, media was aspirated from each well and 35 μL/well of iced-cold MSD lysis buffer containing protease and phosphatase inhibitors from Phospho-STAT3 Tyr705 assay kit (Meso-Scale Discovery #K150DID) was added to each well. Plates were incubated at 4° C. with shaking for 30 minutes. Cell lysates were assayed following the MSD Phospho-STAT3 Tyr705 assay kit protocol to detect pSTAT3.
Data were collected and transformed into percent inhibition and calculated using the following formula: […]

Test [2] addresses JAK3 (Homo sapiens (Human), UniProt P52333). Kind of test: JAK Caliper Enzyme Assay at 1 mM ATP (JAK3). The test is classed as biochemical. To be noted: Caliper assay at 1 mM ATP.
For test [3], the target named is TYK2 (Homo sapiens (Human), UniProt P29597). As to the kind of experiment: JAK Caliper Enzyme Assay at 1 mM ATP (TYK2). The test is classed as biochemical. To be noted: Caliper assay at 1 mM ATP.
In test [4] the target is JAK1 (Homo sapiens (Human), UniProt P23458). As to the kind of experiment: JAK Caliper Enzyme Assay at 1 mM ATP (JAK1). To be noted: Caliper assay at 1 mM ATP. The test is classed as biochemical.
Test [5] has as its target JAK2 (Homo sapiens (Human), UniProt O60674). As to the kind of experiment: JAK Caliper Enzyme Assay at 1 mM ATP (JAK2). The test is classed as biochemical. To be noted: Caliper assay at 1 mM ATP.

Chain of JAK1 (P23458 whole entry, species assumed): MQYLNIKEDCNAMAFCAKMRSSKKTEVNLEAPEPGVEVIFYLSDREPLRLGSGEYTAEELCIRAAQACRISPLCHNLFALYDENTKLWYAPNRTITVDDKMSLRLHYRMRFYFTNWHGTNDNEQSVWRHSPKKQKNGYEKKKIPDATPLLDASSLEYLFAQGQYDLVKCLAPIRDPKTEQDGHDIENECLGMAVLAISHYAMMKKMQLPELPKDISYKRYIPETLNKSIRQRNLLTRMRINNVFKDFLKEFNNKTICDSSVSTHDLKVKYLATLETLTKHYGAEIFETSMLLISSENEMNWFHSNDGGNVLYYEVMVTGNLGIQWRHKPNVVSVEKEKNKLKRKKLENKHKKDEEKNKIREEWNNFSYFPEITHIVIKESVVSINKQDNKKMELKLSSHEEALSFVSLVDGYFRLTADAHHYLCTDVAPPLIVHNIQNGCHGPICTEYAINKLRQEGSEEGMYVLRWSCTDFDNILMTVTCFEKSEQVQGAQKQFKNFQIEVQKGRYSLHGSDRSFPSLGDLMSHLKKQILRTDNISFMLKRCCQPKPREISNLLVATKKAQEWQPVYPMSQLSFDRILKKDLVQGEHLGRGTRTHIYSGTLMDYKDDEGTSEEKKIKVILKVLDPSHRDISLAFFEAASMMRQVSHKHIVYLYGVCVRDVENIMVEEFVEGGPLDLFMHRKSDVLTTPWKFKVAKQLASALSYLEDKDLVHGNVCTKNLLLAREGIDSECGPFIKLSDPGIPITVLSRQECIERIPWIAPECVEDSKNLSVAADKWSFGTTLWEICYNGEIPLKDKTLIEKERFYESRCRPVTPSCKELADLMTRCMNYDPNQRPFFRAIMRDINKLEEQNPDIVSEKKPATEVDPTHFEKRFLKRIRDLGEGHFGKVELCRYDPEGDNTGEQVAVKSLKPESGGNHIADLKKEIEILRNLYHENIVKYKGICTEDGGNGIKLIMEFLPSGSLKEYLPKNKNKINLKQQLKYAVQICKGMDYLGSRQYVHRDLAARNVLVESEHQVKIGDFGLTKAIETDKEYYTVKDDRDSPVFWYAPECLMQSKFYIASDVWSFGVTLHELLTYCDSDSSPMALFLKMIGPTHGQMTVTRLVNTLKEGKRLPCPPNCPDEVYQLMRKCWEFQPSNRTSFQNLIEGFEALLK
Chain of JAK2 (O60674 whole entry, species assumed): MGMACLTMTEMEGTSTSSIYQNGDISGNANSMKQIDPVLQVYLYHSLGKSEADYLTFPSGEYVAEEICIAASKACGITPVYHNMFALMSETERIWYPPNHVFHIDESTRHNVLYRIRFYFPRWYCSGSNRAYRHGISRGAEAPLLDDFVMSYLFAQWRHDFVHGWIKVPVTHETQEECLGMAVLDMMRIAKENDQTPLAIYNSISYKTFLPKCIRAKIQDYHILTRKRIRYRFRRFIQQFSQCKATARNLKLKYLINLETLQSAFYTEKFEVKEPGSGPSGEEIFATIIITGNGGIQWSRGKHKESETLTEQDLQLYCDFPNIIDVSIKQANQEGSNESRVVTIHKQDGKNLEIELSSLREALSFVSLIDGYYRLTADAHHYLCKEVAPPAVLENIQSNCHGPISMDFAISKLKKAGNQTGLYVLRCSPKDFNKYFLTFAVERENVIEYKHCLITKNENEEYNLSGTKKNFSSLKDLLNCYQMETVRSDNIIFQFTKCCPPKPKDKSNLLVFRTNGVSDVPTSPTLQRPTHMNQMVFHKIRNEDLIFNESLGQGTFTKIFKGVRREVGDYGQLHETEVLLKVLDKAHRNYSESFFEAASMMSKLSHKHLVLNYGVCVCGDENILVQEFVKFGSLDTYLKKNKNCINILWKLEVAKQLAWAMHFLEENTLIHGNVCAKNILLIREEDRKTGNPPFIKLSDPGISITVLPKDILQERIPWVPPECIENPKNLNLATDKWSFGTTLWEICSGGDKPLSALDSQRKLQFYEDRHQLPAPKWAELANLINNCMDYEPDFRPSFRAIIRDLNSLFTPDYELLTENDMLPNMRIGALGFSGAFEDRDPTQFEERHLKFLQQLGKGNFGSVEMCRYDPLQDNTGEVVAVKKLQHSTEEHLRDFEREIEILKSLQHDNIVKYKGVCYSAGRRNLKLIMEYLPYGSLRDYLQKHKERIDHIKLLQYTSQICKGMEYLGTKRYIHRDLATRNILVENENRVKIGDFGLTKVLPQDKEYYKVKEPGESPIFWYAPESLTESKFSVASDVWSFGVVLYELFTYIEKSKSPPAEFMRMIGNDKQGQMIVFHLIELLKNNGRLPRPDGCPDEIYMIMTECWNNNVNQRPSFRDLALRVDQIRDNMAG
Chain of TYK2 (P29597 whole entry, species assumed): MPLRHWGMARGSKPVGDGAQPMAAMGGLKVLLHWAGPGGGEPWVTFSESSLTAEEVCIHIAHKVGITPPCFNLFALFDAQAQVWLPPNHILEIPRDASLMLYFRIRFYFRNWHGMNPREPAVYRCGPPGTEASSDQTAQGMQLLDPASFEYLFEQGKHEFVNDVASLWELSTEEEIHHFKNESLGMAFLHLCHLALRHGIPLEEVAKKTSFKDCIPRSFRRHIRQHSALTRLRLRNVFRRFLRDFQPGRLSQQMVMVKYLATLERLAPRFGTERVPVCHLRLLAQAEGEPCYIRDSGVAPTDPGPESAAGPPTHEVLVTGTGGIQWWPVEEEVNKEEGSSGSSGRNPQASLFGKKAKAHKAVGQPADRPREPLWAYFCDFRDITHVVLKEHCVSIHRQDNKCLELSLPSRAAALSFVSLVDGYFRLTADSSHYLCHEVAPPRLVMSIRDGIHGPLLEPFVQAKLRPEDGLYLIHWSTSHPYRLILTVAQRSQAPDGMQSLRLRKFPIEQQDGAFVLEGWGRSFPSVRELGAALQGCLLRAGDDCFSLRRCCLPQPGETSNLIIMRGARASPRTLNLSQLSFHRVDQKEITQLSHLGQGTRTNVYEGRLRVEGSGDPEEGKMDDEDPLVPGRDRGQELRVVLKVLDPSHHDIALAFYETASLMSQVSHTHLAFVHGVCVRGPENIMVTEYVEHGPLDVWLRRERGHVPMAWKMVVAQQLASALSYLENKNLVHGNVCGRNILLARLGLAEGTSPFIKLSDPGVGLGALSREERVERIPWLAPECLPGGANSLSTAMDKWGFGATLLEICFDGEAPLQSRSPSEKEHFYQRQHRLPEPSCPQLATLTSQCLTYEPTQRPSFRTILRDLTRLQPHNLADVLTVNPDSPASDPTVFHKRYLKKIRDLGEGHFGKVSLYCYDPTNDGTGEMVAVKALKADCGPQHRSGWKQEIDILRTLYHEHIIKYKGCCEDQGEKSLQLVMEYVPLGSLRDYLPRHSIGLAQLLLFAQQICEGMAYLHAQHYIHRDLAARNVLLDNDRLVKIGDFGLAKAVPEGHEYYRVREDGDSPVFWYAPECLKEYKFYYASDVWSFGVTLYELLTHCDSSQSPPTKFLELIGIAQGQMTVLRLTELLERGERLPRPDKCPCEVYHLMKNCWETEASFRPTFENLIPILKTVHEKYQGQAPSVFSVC
Chain of JAK3 (P52333 whole entry, species assumed): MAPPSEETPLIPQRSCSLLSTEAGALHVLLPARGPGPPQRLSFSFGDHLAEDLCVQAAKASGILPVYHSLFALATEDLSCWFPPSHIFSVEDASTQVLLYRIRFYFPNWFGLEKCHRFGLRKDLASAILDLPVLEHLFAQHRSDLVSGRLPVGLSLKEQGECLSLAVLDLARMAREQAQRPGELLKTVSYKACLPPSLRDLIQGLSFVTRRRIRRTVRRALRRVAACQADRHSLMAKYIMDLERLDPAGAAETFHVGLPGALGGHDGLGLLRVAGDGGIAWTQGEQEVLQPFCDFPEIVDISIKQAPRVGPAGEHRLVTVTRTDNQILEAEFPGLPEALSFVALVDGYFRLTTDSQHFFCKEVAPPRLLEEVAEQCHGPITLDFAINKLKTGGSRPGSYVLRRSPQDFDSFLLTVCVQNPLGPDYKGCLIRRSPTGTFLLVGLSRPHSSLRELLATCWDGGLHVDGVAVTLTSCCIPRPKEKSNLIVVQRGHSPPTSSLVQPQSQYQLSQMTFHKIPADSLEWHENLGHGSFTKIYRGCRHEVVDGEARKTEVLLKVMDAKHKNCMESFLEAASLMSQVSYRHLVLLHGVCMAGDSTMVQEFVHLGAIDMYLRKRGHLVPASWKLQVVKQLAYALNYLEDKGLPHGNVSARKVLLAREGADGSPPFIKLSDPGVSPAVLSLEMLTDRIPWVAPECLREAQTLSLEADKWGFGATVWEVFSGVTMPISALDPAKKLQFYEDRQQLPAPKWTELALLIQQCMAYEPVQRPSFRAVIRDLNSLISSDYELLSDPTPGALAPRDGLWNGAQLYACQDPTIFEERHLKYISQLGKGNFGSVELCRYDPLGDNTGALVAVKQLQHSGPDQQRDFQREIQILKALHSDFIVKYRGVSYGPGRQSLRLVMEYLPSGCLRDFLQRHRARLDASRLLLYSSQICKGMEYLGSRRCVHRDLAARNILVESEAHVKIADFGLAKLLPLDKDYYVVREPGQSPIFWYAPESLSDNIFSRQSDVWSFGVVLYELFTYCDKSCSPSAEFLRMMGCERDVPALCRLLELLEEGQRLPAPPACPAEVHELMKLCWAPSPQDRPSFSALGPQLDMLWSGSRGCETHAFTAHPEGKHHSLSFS

As for `CCc1cc(O)c(F)cc1-c1cc2[nH]nc(C(=O)NC)c2c(NCc2ccccc2N(CC)S(C)(=O)=O)n1` [Example 9, 6-(2-ethyl-5-fluoro-4-hydroxyphenyl)-4-({2-[ethyl(methylsulfonyl)ami-no]benzyl}amino)-N-methyl-1H-pyrazolo[4,3-c]pyridine-3-carboxamide], the IC50 (usually the concentration that gives 50% inhibition) in test [1] was found to be 0.0149 µM.

In test [1], `CCc1cc(O)c(F)cc1-c1cc2[nH]nc(C(=O)NC)c2c(NCC2CCCC2)n1` [Example 10, 4-[(cyclopentylmethyl)ami-no]-6-(2-ethyl-5-fluoro-4-hydroxyphenyl)-N-methyl-1H-pyrazolo[4,3-c]pyridine-3-carboxamide] gave a 50% inhibitory concentration (IC50) of 0.026 µM.

In turn, `CCN(c1ccccc1CNc1nc(-c2cc(F)c(O)cc2CC(F)(F)F)cc2[nH]nc(C(=O)NC)c12)S(C)(=O)=O` [Example 12, 4-({2-[ethyl(methylsulfon-yl)amino]benzyl}ami-no)-6-[5-fluoro-4-hydroxy-2-(2,2,2-trifluoroethyl)phenyl]-N-methyl-1H-pyrazolo[4,3-c]pyridine-3-carboxamide] registered an IC50 in test [1] of 0.0449 µM.

Consider `CCS(=O)(=O)N(C)c1ccccc1CNc1nc(-c2cc(F)c(O)cc2CC(F)(F)F)cc2[nH]nc(C(=O)NC)c12` [Example 13], for which the concentration for half-maximal inhibition (IC50) in test [1] stood at 0.0967 µM.

The molecule `CNC(=O)c1n[nH]c2cc(-c3cc(F)c(O)cc3CC(F)(F)F)nc(NCc3cc(F)ccc3N(C)S(C)(=O)=O)c12` [Example 14, 6-[5-fluoro-4-hydroxy-2-(2,2,2-trifluoroethyl)phenyl]-4-({5-fluoro-2-[methyl(methylsulfon-yl)amino]benzyl}ami-no)-N-methyl-1H-pyrazolo[4,3-c]pyridine-3-carboxamide] yielded a half-maximal inhibitory concentration (IC50) in test [1] of 0.0207 µM.

In turn, `CNC(=O)c1n[nH]c2cc(-c3cc(F)c(O)cc3CC(F)(F)F)nc(NCc3c(F)cccc3N(C)S(C)(=O)=O)c12` [Example 18, 6-[5-fluoro-4-hydroxy-2-(2,2,2-trifluoroethyl)phenyl]-4-({2-fluoro-6-[methyl(meth-ylsulfonyl)amino]benz-yl}amino)-N-methyl-1H-pyrazolo[4,3-c]pyridine-3-carboxamide] gave an IC50 in test [1] of 0.097 µM.

For the molecule `CCc1cc(O)c(F)cc1-c1cc2[nH]nc(C(=O)NC)c2c(NCc2cc(C)ccc2N(C)S(C)(=O)=O)n1` [Example 21, 6-(2-ethyl-5-fluoro-4-hydroxyphenyl)-N-methyl-4-({5-methyl-2-[methyl(methylsulfon-yl)amino]benzyl}ami-no)-1H-pyrazolo[4,3-c]pyridine-3-carboxamide], the half-maximal inhibitory concentration (IC50) in test [1] turned out to be 0.0356 µM.

With `CCc1cc(O)c(F)cc1-c1cc2[nH]nc(C(=O)NC)c2c(NCc2ccccc2N(C)S(=O)(=O)c2ccccc2)n1` [Example 22, 6-(2-ethyl-5-fluoro-4-hydroxyphenyl)-N-methyl-4-({2-[methyl(phen-ylsulfonyl)amino]ben-zyl}amino)-1H-pyrazolo[4,3-c]pyridine-3-carboxamide], inhibition in test [1] was half-maximal at 0.0528 µM (IC50).

On to `CCc1cc(O)c(F)cc1-c1cc2[nH]nc(C(=O)NC)c2c(NCCc2ccc(NS(=O)(=O)c3ccccc3)cc2)n1` [Example 23, 6-(2-ethyl-5-fluoro-4-hydroxyphenyl)-N-methyl-4-[(2-{4-[(phenylsulfonyl)-amino]phenyl}ethyl)ami-no]-1H-pyrazolo[4,3-c]pyridine-3-carboxamide], for which, in test [1], the IC50 was found to be 0.0514 µM.

On to `CNC(=O)c1n[nH]c2cc(-c3cc(F)c(O)cc3CC(F)(F)F)nc(NCc3ccccc3N(CCO)S(C)(=O)=O)c12` [Example 24, 6-[5-fluoro-4-hydroxy-2-(2,2,2-trifluoroethyl)phenyl]-4-({2-[(2-hydroxyethyl)-(methylsulfonyl)ami-no]benzyl}amino)-N-methyl-1H-pyrazolo[4,3-c]pyridine-3-carboxamide], for which the concentration for half-maximal inhibition (IC50) in test [1] was found to be 0.226 µM.

In turn, `CN(c1ccccc1CNc1nc(-c2cc(F)c(O)cc2CC(F)(F)F)cc2[nH]nc(C(N)=O)c12)S(=O)(=O)c1ccccc1` [Example 26, 6-[5-fluoro-4-hydroxy-2-(2,2,2-trifluoroethyl)phenyl]-4-({2-[methyl(phen-ylsulfonyl)amino]ben-zyl}amino)-1H-pyrazolo[4,3-c]pyridine-3-carboxamide] showed a concentration for half-maximal inhibition (IC50) in test [1] of 0.124 µM.

Regarding `CS(=O)(=O)N(CCO)c1ccccc1CNc1nc(-c2cc(F)c(O)cc2CC(F)(F)F)cc2[nH]nc(C(N)=O)c12` [Example 27, 6-[5-fluoro-4-hydroxy-2-(2,2,2-trifluoroethyl)phenyl]-4-({2-[(2-hydroxyethyl)(methylsul-fonyl)amino]benzyl}amino)-1H-pyrazolo[4,3-c]pyridine-3-carboxamide], half-maximal inhibition in test [1] (IC50) was put at 0.874 µM.

Take `CNC(=O)c1n[nH]c2cc(-c3cc(F)c(O)cc3CC(F)(F)F)nc(NCc3ccc(O)cc3N(C)S(C)(=O)=O)c12` [Example 33, 6-[5-fluoro-4-hydroxy-2-(2,2,2-trifluoroethyl)phenyl]-4-({4-hydroxy-2-[methyl(methylsulfon-yl)amino]benzyl}amino)-N-methyl-1H-pyrazolo[4,3-c]pyridine-3-carboxamide]: the IC50 in test [1] was 0.49 µM.

For `CNC(=O)c1n[nH]c2cc(-c3cc(F)c(O)cc3CC(F)(F)F)nc(NCc3cc(O)ccc3N(C)S(=O)(=O)c3ccccc3)c12` [Example 35, 6-[5-fluoro-4-hydroxy-2-(2,2,2-trifluoroethyl)phenyl]-4-({5-hydroxy-2-[methyl(phenylsulfon-yl)amino]benzyl}amino)-N-methyl-1H-pyrazolo[4,3-c]pyridine-3-carboxamide], it took 0.437 µM to reach half-maximal inhibition in test [1] (IC50).

Turning to `CCc1cc(O)c(F)cc1-c1cc2[nH]nc(-c3ncc[nH]3)c2c(NCc2ccccc2N(C)S(C)(=O)=O)n1` [Example 157, N-[2-({[6-(2-Ethyl-5-fluoro-4-hydroxyphenyl)-3-(1H-imidazol-2-yl)-1H-pyrazolo[4,3-c]pyridin-4-yl]amino}methyl)phenyl]-N-methylmethanesulfonamide], the IC50 in test [2] came out at 0.0765 µM; in test [3], 0.0117 µM; in test [4] it was 0.0034 µM; in test [5], 0.015 µM.

Regarding `CCc1cc(O)c(F)cc1-c1cc2[nH]nc(-c3nc(C)c[nH]3)c2c(NCc2ccccc2N(C)S(C)(=O)=O)n1` [Example 159, N-[2-({[6-(2-Ethyl-5-fluoro-4-hydroxyphenyl)-3-(4-methyl-1H-imidazol-2-yl)-1H-pyrazolo[4,3-c]pyridin-4-yl]amino}methyl)phenyl]-N-methylmethanesulfonamide], the half-maximal inhibitory concentration (IC50) came to 0.0833 µM in test [2], 0.0161 µM in test [3], 0.0043 µM in test [4] and 0.0185 µM in test [5].

Take `CCc1cc(O)c(F)cc1-c1cc2[nH]nc(-n3cccn3)c2c(NCc2ccccc2N(C)S(C)(=O)=O)n1` [Example 162, N-[2-({[6-(2-Ethyl-5-fluoro-4-hydroxyphenyl)-3-(1H-pyrazol-1-yl)-1H-pyrazolo[4,3-c]pyridin-4-yl]amino}methyl)phenyl]-N-methylmethanesulfonamide]: the IC50 in test [2] stood at 0.0906 µM; in test [3] it was 0.0154 µM; in test [4] it was 0.0041 µM; in test [5], 0.0236 µM.

On to `CN(c1ccccc1CNc1nc(-c2cc(F)c(O)cc2CC(F)(F)F)cc2[nH]nc(-n3cccn3)c12)S(C)(=O)=O` [Example 163, N-{2-[({6-[5-Fluoro-4-hydroxy-2-(2,2,2-trifluoroethyl)phenyl]-3-(1H-pyrazol-1-yl)-1H-pyrazolo[4,3-c]pyridin-4-yl}amino)methyl]phenyl}-N-methylmethanesulfonamide], for which the IC50 in test [2] was found to be 0.491 µM; in test [3], 0.356 µM; in test [4], 0.0329 µM; in test [5], 0.15 µM.

On to `CCc1cc(O)c(F)cc1-c1cc2[nH]nc(-c3nnc(C)[nH]3)c2c(NCc2ccccc2N(C)S(C)(=O)=O)n1` [Example 165, N-[2-({[6-(2-Ethyl-5-fluoro-4-hydroxyphenyl)-3-(5-methyl-4H-1,2,4-triazol-3-yl)-1H-pyrazolo[4,3-c]pyridin-4-yl]amino}methyl)phenyl]-N-methylmethanesulfonamide], for which the IC50 amounted to 0.078 µM in test [2], 0.0146 µM in test [3], 0.0035 µM in test [4] and 0.0169 µM in test [5].

`CC(CO)CNc1nc(-c2cc(F)c(O)cc2CC(F)(F)F)nc2[nH]nc(-c3nc4c([nH]3)CCN(Cc3ccccc3)C4)c12` (centres unmarked) [Example 173, 4-(3-(5-Benzyl-4,5,6,7-tetrahydro-1H-imidazo[4,5-c]pyridin-2-yl)-4-((3-hydroxy-2-methylpropyl)amino)-1H-pyrazolo[3,4-d]pyrimidin-6-yl)-2-fluoro-5-(2,2,2-trifluoroethyl)phenol]: the concentration for half-maximal inhibition (IC50) in test [2] came out at 0.134 µM; in test [3] it was 0.18 µM; in test [4], 0.0093 µM; in test [5], 0.0503 µM.

The values are drawn from patent US9518052B2, “Pyrazolopyridines and pyrazolopyrimidines” (Pfizer Inc., priority 2014, dated 2016).
